In US5998376A, “Substance P treatment for immunostimulation” (priority 1998, dated 1999):

Legend:
[1] = system: spleen, thymus and bone marrow cells; experiment: Substance P aerosol therapy in JP-8 jet fuel exposed mice, cell numbers (FIGS. 1-3); format: in vivo, C57BL6 mice
Excerpt: Since mice are nose-breathers, they were exposed to the aerosol/vapor mixture via nose-only presentation while they were held in individual loading tubes. The tubes were nose-fitted to receiving adaptors that originated from the common anodized aluminum exposure chamber (volume 0.3 m^3, IN-TOX, Albuquerque, N.Mex.). Noses were positioned in the exposure ports to minimize systemic absorption that might occur during total body exposure or through the process of self-grooming after exposure. The mice were rotated on a daily basis through the 24-adaptor positions of the exposure chamber. This was done to minimize proximity to the jet fuel source as a variable in exposure concentration or composition. Passive entrainment of the jet fuel aerosol/vapor mix and room air through the IN-TOX chamber was conducted by vacuum (15 liters/min). The vacuum was applied to the exposure chamber on the side opposite the fuel source. Animal exposure ports not in use were sealed during the exposure period. Longitudinal controls were sham-exposed in a manner identical to those receiving jet fuel, except that only room air was introduced into the exposure chamber. The exposure chamber was thoroughly cleaned prior to the longitudinal control group's exposure.
The substance P aerosol therapy was performed at the completion of the JP-8 jet fuel exposure. The nebulizer was modified with clean hoses and a new sonication crucible. […] The substance P aerosol therapy was conducted for the same seven day period over a total time period of nine days as the JP-8 jet fuel exposure regimen.

[2] = system: lymphocyte subpopulations; experiment: Flow cytometric analyses (FACS) of immune organs, JP-8 exposed mice; format: in vivo, C57B16 mice
Experimental: At 24 hours after the last exposure, the animals were sacrificed and the effects of exposure on the immune system examined. Immune organs (spleen, thymus, blood, lymph nodes and bone marrow) were recovered and analyzed for effects on organ weight, total cell numbers, immune cell populations (by differentials), and lymphocyte subpopulations (by flow cytometry). Assays were also performed to examine the effects of exposure on immune function. […] Similar effects on immune cell subpopulations were also observed in lymph nodes. In the thymus it appeared that the immature CD4^+ CD8^+ cells were differentially lost due to exposure. […] However, these effects are prevented or ameliorated by treatment of the animals with Substance P.
Flow cytometric analyses (FACS): One- and two-color FACS analyses are performed using a Becton-Dickinson FACStar Plus flow cytometer. Cells are stained with the indicated monoclonal antibodies according to standard procedures (Harris et al., id). Cells alone and cells reacted with conjugated isotype control, irrelevant mAbs are used as controls. Data is presented as the percentage of cells staining positive for each individual mAb.

[3] = JP-8 exposed mice, one micromolar aerosol 15 minutes
[4] = JP-8 dose 0 + SP or antagonist aerosol
[5] = JP-8 dose 1000 + SP or antagonist aerosol
[6] = JP-8 dose 1000 + nSP (1 nanomolar substance P)

Substance P [SP]
effect on spleen cell number (FIG. 1) ([1]; JP-8 500 or 2500 mg/m^3, 1 hour/day 7 days, one micromolar aerosol 15 minutes after each exposure): totally reverse the effect of the jet fuel on the spleen cell number
effect on bone marrow cells (FIG. 3) [1, 3]: augments the stimulation substantially
effect on thymus cell number (FIG. 2) [1, 3]: substantially reverses the effect on cell number
BM CD3, cells staining positive [2, 4]: 12%
BM CD4, cells staining positive [2, 4]: 11%
BM CD8, cells staining positive [2, 4]: 1%
BM CD45, cells staining positive [2, 4]: 48%
Spleen CD3, cells staining positive [2, 4]: 42%
Spleen CD4, cells staining positive [2, 4]: 26%
Spleen CD8, cells staining positive [2, 4]: 11%
Spleen CD45, cells staining positive [2, 4]: 23%
Spleen MAC1, cells staining positive [2, 4]: 1%
Thymus CD3, cells staining positive [2, 4]: 10%
Thymus DN, cells staining positive [2, 4]: 7%
Thymus DP, cells staining positive [2, 4]: 84%
Thymus SP4, cells staining positive [2, 4]: 6%
Thymus SP8, cells staining positive [2, 4]: 2%
BM CD3, cells staining positive ([2]; JP-8 dose 250 + SP aerosol): 13%
BM CD4, cells staining positive ([2]; JP-8 dose 250 + SP aerosol): 10%
BM CD8, cells staining positive ([2]; JP-8 dose 250 + SP aerosol): 3%
BM CD45, cells staining positive ([2]; JP-8 dose 250 + SP aerosol): 48%
BM MAC1, cells staining positive ([2]; JP-8 dose 250 + SP aerosol): 10%
LN CD3, cells staining positive ([2]; JP-8 dose 250 + SP aerosol): 85%
LN CD4, cells staining positive ([2]; JP-8 dose 250 + SP aerosol): 48%
LN CD8, cells staining positive ([2]; JP-8 dose 250 + SP aerosol): 12%
LN CD45, cells staining positive ([2]; JP-8 dose 250 + SP aerosol): 13%
LN MAC1, cells staining positive ([2]; JP-8 dose 250 + SP aerosol): 1%
PBL CD3, cells staining positive ([2]; JP-8 dose 250 + SP aerosol): 59%
PBL CD4, cells staining positive ([2]; JP-8 dose 250 + SP aerosol): 15%
PBL CD8, cells staining positive ([2]; JP-8 dose 250 + SP aerosol): 6%
PBL CD45, cells staining positive ([2]; JP-8 dose 250 + SP aerosol): 16%
PBL MAC1, cells staining positive ([2]; JP-8 dose 250 + SP aerosol): 1%
Spleen CD3, cells staining positive ([2]; JP-8 dose 250 + SP aerosol): 62%
Spleen CD4, cells staining positive ([2]; JP-8 dose 250 + SP aerosol): 27%
Spleen CD8, cells staining positive ([2]; JP-8 dose 250 + SP aerosol): 3%
Spleen CD45, cells staining positive ([2]; JP-8 dose 250 + SP aerosol): 21%
Spleen MAC1, cells staining positive ([2]; JP-8 dose 250 + SP aerosol): 1%
Thymus CD3, cells staining positive ([2]; JP-8 dose 250 + SP aerosol): 24%
Thymus DN, cells staining positive ([2]; JP-8 dose 250 + SP aerosol): 5%
Thymus DP, cells staining positive ([2]; JP-8 dose 250 + SP aerosol): 68%
Thymus SP4, cells staining positive ([2]; JP-8 dose 250 + SP aerosol): 22%
Thymus SP8, cells staining positive ([2]; JP-8 dose 250 + SP aerosol): 5%
BM CD3, cells staining positive [2, 5]: 14%
BM CD4, cells staining positive [2, 5]: 9%
BM CD8, cells staining positive [2, 5]: 2%
BM CD45, cells staining positive [2, 5]: 31%
BM MAC1, cells staining positive [2, 5]: 26%
LN CD3, cells staining positive [2, 5]: 86%
LN CD4, cells staining positive [2, 5]: 29%
LN CD8, cells staining positive [2, 5]: 11%
LN CD45, cells staining positive [2, 5]: 22%
LN MAC1, cells staining positive [2, 5]: 0%
PBL CD3, cells staining positive [2, 5]: 61%
PBL CD4, cells staining positive [2, 5]: 23%
PBL CD8, cells staining positive [2, 5]: 10%
PBL CD45, cells staining positive [2, 5]: 22%
PBL MAC1, cells staining positive [2, 5]: 3%
Spleen CD3, cells staining positive [2, 5]: 34%
Spleen CD4, cells staining positive [2, 5]: 18%
Spleen CD8, cells staining positive [2, 5]: 10%
Spleen CD45, cells staining positive [2, 5]: 20%
Spleen MAC1, cells staining positive [2, 5]: 5%
Thymus CD3, cells staining positive [2, 5]: 20%
Thymus DN, cells staining positive [2, 5]: 10%
Thymus DP, cells staining positive [2, 5]: 65%
Thymus SP4, cells staining positive [2, 5]: 16%
Thymus SP8, cells staining positive [2, 5]: 6%
BM CD3, cells staining positive [2, 6]: 13%
BM CD4, cells staining positive [2, 6]: 10%
BM CD8, cells staining positive [2, 6]: 3%
BM CD45, cells staining positive [2, 6]: 43%
BM MAC1, cells staining positive [2, 6]: 16%
LN CD3, cells staining positive [2, 6]: 95%
LN CD4, cells staining positive [2, 6]: 42%
LN CD8, cells staining positive [2, 6]: 25%
LN CD45, cells staining positive [2, 6]: 23%
LN MAC1, cells staining positive [2, 6]: 0%
PBL CD3, cells staining positive [2, 6]: 78%
PBL CD4, cells staining positive [2, 6]: 25%
PBL CD8, cells staining positive [2, 6]: 8%
PBL CD45, cells staining positive [2, 6]: 29%
PBL MAC1, cells staining positive [2, 6]: 2%
Spleen CD3, cells staining positive [2, 6]: 60%
Spleen CD4, cells staining positive [2, 6]: 15%
Spleen CD8, cells staining positive [2, 6]: 5%
Spleen CD45, cells staining positive [2, 6]: 41%
Spleen MAC1, cells staining positive [2, 6]: 1%
Thymus CD3, cells staining positive [2, 6]: 25%
Thymus DN, cells staining positive [2, 6]: 7%
Thymus DP, cells staining positive [2, 6]: 69%
Thymus SP4, cells staining positive [2, 6]: 16%
Thymus SP8, cells staining positive [2, 6]: 7%
BM CD3, cells staining positive ([2]; JP-8 dose 2500 + SP aerosol): 6%
BM CD4, cells staining positive ([2]; JP-8 dose 2500 + SP aerosol): 3%
BM CD8, cells staining positive ([2]; JP-8 dose 2500 + SP aerosol): 6%
BM CD45, cells staining positive ([2]; JP-8 dose 2500 + SP aerosol): 24%
BM MAC1, cells staining positive ([2]; JP-8 dose 2500 + SP aerosol): 34%
Spleen CD3, cells staining positive ([2]; JP-8 dose 2500 + SP aerosol): 38%
Spleen CD4, cells staining positive ([2]; JP-8 dose 2500 + SP aerosol): 26%
Spleen CD8, cells staining positive ([2]; JP-8 dose 2500 + SP aerosol): 14%
Spleen CD45, cells staining positive ([2]; JP-8 dose 2500 + SP aerosol): 31%
Spleen MAC1, cells staining positive ([2]; JP-8 dose 2500 + SP aerosol): 3%
Thymus CD3, cells staining positive ([2]; JP-8 dose 2500 + SP aerosol): 16%
Thymus DN, cells staining positive ([2]; JP-8 dose 2500 + SP aerosol): 19%
Thymus DP, cells staining positive ([2]; JP-8 dose 2500 + SP aerosol): 64%
Thymus SP4, cells staining positive ([2]; JP-8 dose 2500 + SP aerosol): 15%
Thymus SP8, cells staining positive ([2]; JP-8 dose 2500 + SP aerosol): 5%
